Laboratory results published in paper PMC4774911, “Biochemical Screening of Five Protein Kinases from Plasmodium falciparum against 14,000 Cell-Active Compounds” (PLoS ONE, 2016).

Experiments:
[1] = molecular target: T1, Plasmodium falciparum calcium-dependent protein kinase 1 (CDPK1) (Plasmodium falciparum, UniProt P62344); experiment: CDPK1 Kinase-Glo ATP-consumption screen and dose-response; assay type: biochemical; settings: hits below 1 uM; read-out: CDPK1 IC50
T1 construct: 6-Histidine (N); made in house
T1 sequence (P62344 whole entry): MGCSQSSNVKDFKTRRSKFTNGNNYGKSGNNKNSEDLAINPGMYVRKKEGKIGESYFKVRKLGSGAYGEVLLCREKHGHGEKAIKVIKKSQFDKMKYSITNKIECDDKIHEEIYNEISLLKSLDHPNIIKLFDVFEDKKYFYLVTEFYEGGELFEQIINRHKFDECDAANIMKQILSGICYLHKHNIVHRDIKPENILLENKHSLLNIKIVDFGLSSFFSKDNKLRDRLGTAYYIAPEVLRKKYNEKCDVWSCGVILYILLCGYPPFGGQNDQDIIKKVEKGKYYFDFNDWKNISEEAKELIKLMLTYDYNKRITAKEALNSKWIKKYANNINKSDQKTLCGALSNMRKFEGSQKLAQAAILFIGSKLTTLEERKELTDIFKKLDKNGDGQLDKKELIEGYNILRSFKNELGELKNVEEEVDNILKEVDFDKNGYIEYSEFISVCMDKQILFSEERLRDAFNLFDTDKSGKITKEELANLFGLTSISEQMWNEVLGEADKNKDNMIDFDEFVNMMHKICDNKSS
Procedure, shortened: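 Single-point testing used 1 μM final compound, then dose-response, against CDPK4 and CDPK1 with Syntide-2 (40 μM) as substrate. After 90 min, reactions were halted by 5 mM EGTA, and kinase activity was inferred from depleted ATP via Kinase-Glo luminescence.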

3D7 PFLDH = tested on: 3D7 PFLDH; set-up: method as in downloaded from ChEMBL; settings: ref downloaded from ChEMBL; cited from earlier work
DD2 = tested on: DD2; set-up: method as in downloaded from ChEMBL; settings: ref downloaded from ChEMBL; cited from earlier work
HepG2 cells = settings: HEPG2; ref downloaded from ChEMBL; cited from earlier work
P. falciparum 3D7 cells = settings: 3D7; ref downloaded from ChEMBL; cited from earlier work

SMILES	IC50 [1]	PCT_INHIB_3D7_PFLDH (3D7 PFLDH)	PCT_INHB_DD2 (DD2)	PCT_INHIB_HEPG2 (HepG2 cells)	PCT_IHB_3D7 (P. falciparum 3D7 cells)	pXC50_3D7 (P. falciparum 3D7 cells)
c1ccc(Oc2ccc(Nc3ccnc4cc(-c5ccc(CNCCN6CCOCC6)o5)ccc34)cc2)cc1 [TCMDC-138398]	435 nM	0	99	20	99	6.358
CN(C)CCNCc1ccc(-c2ccc3c(Nc4ccc(Oc5ccccc5)cc4)ccnc3c2)o1 [TCMDC-138399]	681 nM	2	99	19	100	6.553
CN(C)CCN(C)Cc1ccc(-c2ccc3c(Nc4ccc(Oc5ccccc5)cc4)ccnc3c2)o1 [TCMDC-138400]	718 nM	0	100	5	100	6.746
CN(C)CCN(C)Cc1nc(-c2ccc3c(Nc4ccc(Oc5ccccc5)cc4)ccnc3c2)cs1 [TCMDC-138408]	915 nM	0	100	27	100	6.673
CN(C)CCNCc1nc(-c2ccc3c(Nc4ccc(Oc5ccccc5)cc4)ccnc3c2)cs1 [TCMDC-138410]	887 nM	6	100	8	100	6.1332
CN(C)Cc1ccc(-c2ccc3c(Nc4ccc(Oc5ccccn5)cc4)ccnc3c2)o1 [TCMDC-138425]	513 nM	1	100	18	100	6.798
COCCNCc1cccc(-c2ccc3c(Nc4cc(O)c(Cl)cc4F)ccnc3c2)c1 [TCMDC-138429]	436 nM	7	79	0	100	6.944
CN1CCN(Cc2cccc(-c3ccc4c(Nc5cc(O)c(Cl)cc5F)ccnc4c3)c2)CC1 [TCMDC-138430]	762 nM	4	100	0	100	6.114
CS(=O)(=O)CCNCc1cccc(-c2ccc3c(Nc4cc(O)c(Cl)cc4F)ccnc3c2)c1 [TCMDC-138435]	71 nM	0	100	9	100	6.595
COCCNCc1ncsc1-c1ccc2c(Nc3cc(O)c(Cl)cc3F)ccnc2c1 [TCMDC-138441]	150 nM	0	92	0	100	6.262
CN1CCN(Cc2ccc(-c3ccc4c(Nc5cc(O)c(Cl)cc5F)ccnc4c3)o2)CC1 [TCMDC-138446]	131 nM	0	99	2	100	6.961
Cc1ccc(O)cc1Nc1ccnc2cc(-c3cccc(CNCCS(C)(=O)=O)c3)ccc12 [TCMDC-138472]	125 nM	2	100	9	99	6.078
COCCNCc1cccc(-c2ccc3c(Nc4ccc(Oc5ccccc5)cc4)ccnc3c2)c1 [TCMDC-138478]	979 nM	2	99	25	100	6.287
COCCNCc1cccc(-c2ccc3c(Nc4ccc(Oc5cccnc5)cc4)ccnc3c2)c1 [TCMDC-138487]	913 nM	0	99	58	100	6.749
